Test: Ellipsometry of dry TA/MnP-PVPON films at pH 5 and pH 2.5 (film stability)
Format: physicochemical
Method: The stability of the MnP-PVPON/TA multilayers dried from pH=2.5 was examined since ionization of TA is minimized at this pH (below the pKa of TA), which could result in destabilization of the film.
Ellipsometry: Film thickness was measured using a M2000U spectroscopic ellipsometer (Woollam). Single-side polished silicon wafers 500-μm-thick (University Wafer) of 20 mm×50 mm were cleaned in a mixture of concentrated sulfuric acid and Nocromix (Godax Laboratories) for 24 hours, washed with DI water, dried with a stream of nitrogen (Airgas) and used immediately thereafter. First, a precursor layer of poly(ethyleneimine) (PEI, Sigma-Aldrich) was adsorbed onto the wafer surface from 1 mg mL^−1 PEI aqueous solution for 10 min. After that the deposition of TA, PVPON and MnP-PVPON onto silicon wafers coated with a PEI layer was performed using a 5-mL liquid flow-through cell (Woollam) at pH=5 and pH=7.2 (0.01 M phosphate buffer). The pH values of 0.01 M phosphate buffers were adjusted using 0.1 M HCl and NaOH aqueous solutions. Dry thickness measurements were performed between 400 and 1000 nm at 65, 70, and 75° angles of incidence, while wet thickness studies were monitored at 75° incidence angle. […] The thickness of silicon oxide was determined using known optical constants. […]

## O=C(OC[C@H]1O[C@@H](OC(=O)c2cc(O)c(O)c(OC(=O)c3cc(O)c(O)c(O)c3)c2)[C@H](OC(=O)c2cc(O)c(O)c(OC(=O)c3cc(O)c(O)c(O)c3)c2)[C@@H](OC(=O)c2cc(O)c(O)c(OC(=O)c3cc(O)c(O)c(O)c3)c2)[C@@H]1OC(=O)c1cc(O)c(O)c(OC(=O)c2cc(O)c(O)c(O)c2)c1)c1cc(O)c(O)c(OC(=O)c2cc(O)c(O)c(O)c2)c1 [TA, tannic acid]
  Layer thickness: 1.8 nm
  Total thickness: 4.1 nm

— patent US20200179294A1, “MANGANOPORPHYRIN-POLYPHENOL MULTILAYER CAPSULES AS RADICAL AND REACTIVE OXYGEN SPECIES SCAVENGERS” (THE UAB RESEARCH FOUNDATION, priority 2018, published 2020)
